# Measurements taken from patent US20090012115A1 (Portola Pharmaceuticals, Inc., priority 2007, published 2009).
# Assays:
# [1] = compared with clopidogrel; cited from earlier work
# P2Y12 ADP receptor = P2Y12 ADP receptor (Homo sapiens, UniProt Q9H244); settings: cited from earlier work
# [2] = cited from earlier work
# preformed thrombi = assay: Thrombus stability / dethrombosis of preformed thrombi; type: cell-based
# Text: The addition of a TP antagonist to preformed thrombi caused dethrombosis (FIG. 5A).
# platelets [3] = settings: cited from earlier work
# [4] = test system: platelets recruited on the collagen surface; assay: Real time perfusion chamber thrombosis assay (whole blood over collagen-coated chamber, fluorescent platelets); type: cell-based, human; settings: for interaction with antithrombotic activity of clopidogrel: 12 healthy individuals on clopidogrel 75 mg/d, ifetroban spiked into whole blood, aspirin 325 mg/d over the third week; for antithrombotic activity versus aspirin: 100 nM or 350 nM spiked in vitro
# Description: The experiment was performed by perfusing whole blood anticoagulated with factor Xa inhibitor (10 μM) through a human collagen type III-coated perfusion chamber. Platelets were fluorescently labeled in vitro using Rhodamine 6G (1.25 μg/ml final concentration), and thrombosis was monitored in real time by measuring the amount of fluorescent platelets recruited on the collagen surface using fluorescence microscopy. The results are depicted in FIG. 3.
# The experiments are performed in the real time thrombosis perfusion chamber device. In this system, the real time thrombotic process triggered by perfusion of Factor Xa anticoagulated whole blood is studied using a collagen coated perfusion chamber at arterial shear rates.
# A dose response study of the antithrombotic and anti-aggregatory effects of vehicle control, indomethacin (from 10 nM to 10 uM), and ifetroban (from 10 nM to 3 uM) spiked in vitro in the blood of aspirin-intolerant individuals before, and after treatment with clopidogrel (75 mg/d for a minimum of 5 days, n≧10) is performed. Experiments are performed in the real time perfusion chamber assay under arterial shear rates conditions. […] By using indomethacin we can confirm that Cox-1 inhibition indeed can provide additional antithrombotic properties; however, the intolerance prevents the use of a COX-1 inhibitor.
# Real time perfusion chamber assays (RTTP) were performed using blood anticoagulated with Fxa inhibitor (10 uM 034) and perfused through collagen-coated capillaries (1100/sec). Thrombus formation on the collagen surface was monitored in real time using fluorescence microscopy to detect fluorescently labeled (R6G) platelets.
# platelets [5] = assay: Collagen-induced platelet aggregation (light transmittance aggregometry); type: cell-based, human; settings: for anti-aggregatory activity, collagen-induced platelet aggregation: 1 μM, 100 nM, 350 nM
# Description: PRP-induced platelet aggregation are performed with arachidonic acid (between 200 μM and 1 mM), U46619 (a TP agonist) (between 0.5 μM and 5 μM) and collagen (around 4 μg/ml) as platelet agonists. Indomethacin and
# (§1) Light transmittance aggregometry (LTA) assays were performed by standard procedures, initiating platelet aggregation with collagen or arachidonic acid.
# [6] = test system: platelet recruitment on the injured vessel wall; assay: Intravital microscopy, ferric chloride injury of mesenteric arteries; type: in vivo, mice; settings: Example 5; for antithrombotic activity in P2Y12 heterozygous animals: P2Y12 heterozygous mice; for antithrombotic activity in wild type animals: wild type mice
# Description: The methodology utilized is intravital microscopy. In this system, injury of the mesenteric arteries is performed by topical application of a filter paper that has been previously soaked into a ferric chloride solution. Monitoring of the recruitment of fluorescently labeled platelets on the injured vessel wall is performed in real time using an inverted fluorescent microscope connected to a computer.
# platelets [7] = assay: Arachidonic acid-induced platelet aggregation (light transmittance aggregometry); type: cell-based, human; settings: healthy volunteers and AERD patients; 1 μM, 350 nM, 100 nM; FIGS. 10A and 10B
# Description: as §1
# leukotrienes = assay: In vivo determination of the levels of leukotrienes; set-up: species or system mice; settings: Example 5; treated animals
# Text: In vivo monitoring of gastrointestinal bleeding and determination of the levels of leukotrienes will be performed.
# [8] = Gresele et al.; cited from earlier work
# coronary arteries = coronary arteries of dogs; cited from earlier work
# [9] = HOT trial, hypertensive patients, 75 mg/d vs placebo
# Sequence of P2Y12 ADP receptor (Q9H244 whole entry): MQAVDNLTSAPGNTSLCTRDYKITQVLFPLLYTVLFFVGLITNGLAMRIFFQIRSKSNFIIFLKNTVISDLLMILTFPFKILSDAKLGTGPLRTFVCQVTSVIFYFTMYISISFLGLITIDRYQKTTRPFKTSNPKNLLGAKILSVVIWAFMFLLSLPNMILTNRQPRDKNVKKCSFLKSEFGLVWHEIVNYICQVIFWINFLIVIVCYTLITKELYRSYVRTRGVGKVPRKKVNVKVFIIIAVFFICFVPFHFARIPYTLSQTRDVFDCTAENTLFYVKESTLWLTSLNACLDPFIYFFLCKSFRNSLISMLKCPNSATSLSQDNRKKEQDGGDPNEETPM
compound,measurement,setting,value
CNc1cc2[nH]c(=O)n(-c3ccc(NC(=O)NS(=O)(=O)c4ccc(Cl)s4)cc3)c(=O)c2cc1F,pharmacokinetic properties,[1],superior pharmacokinetic properties to clopidogrel
same,de-aggregation of preformed thrombi,P2Y12 ADP receptor,de-aggregate preformed thrombi
same,inhibition of ADP-mediated platelet aggregation,P2Y12 ADP receptor,reversible inhibitor
"O=C(O)CC/C=C\CC[C@@H]1[C@@H](N2CCCCC2)[C@@H](O)C[C@@H]1OCc1ccc(-c2ccccc2)cc1 [GR 32191, [1R-[1α(Z),2β,3β,5α]]-(+)-7-[5-([1,1′-biphenyl]-4-ylmethoxy)-3-hydroxy-2-(1-piperidinyl)cyclopentyl]-4-heptenoic acid]",prevention of restenosis,[2]; CARPORT trial,lack activity in the prevention of restenosis
"CCCCC[C@H](O)/C=C/[C@H]1C(=O)C[C@H](O)[C@@H]1C/C=C\CCCC(=O)O [PGD2, prostaglandin D2]",dethrombotic activity,"preformed thrombi; physiological concentrations added to aspirinated blood, FIG. 5C",induced a profound dethrombotic activity
O=C(O)COc1ccc(CCNS(=O)(=O)c2ccccc2)cc1 [Sulotroban],restenosis following PTCA,"[2]; M-HEART-II study, 752 patients",no different than aspirin or placebo
same,"clinical events (death, MI or clinically important restenosis)",[2]; M-HEART-II study,inferior to aspirin
CCCCC[C@H](O)/C=C/[C@@H]1[C@@H](C/C=C\CCCC(=O)O)[C@H]2CO[C@@H]1C2 [U46619],thrombus stability,"preformed thrombi; TXA2 mimetic, FIG. 5B",can promote thrombus stability
COC(=O)[C@H](c1ccccc1Cl)N1CCc2sccc2C1 [clopidogrel],efficacy versus aspirin,[2]; CAPRIE trial,more efficacious than aspirin
same,relative risk reduction,"[2]; CURE trial, clopidogrel with aspirin vs placebo plus aspirin, unstable angina or non-ST segment elevation MI",20%
CC(C)Cc1ccc(C(C)C(=O)O)cc1 (stereo not shown) [ibuprofen],effect of concomitant administration on antiaggregatory activity of aspirin,platelets [3]; Catella-Lawson et al.,reduce the antiaggregatory activity of aspirin
"CCCCCNC(=O)c1coc([C@H]2[C@@H](Cc3ccccc3CCC(=O)[O-])[C@@H]3CC[C@H]2O3)n1.[Na+] [ifetroban, [1S-(1α,2α,3α,4α)]-2-[[3-[4-[(pentylamino)carbonyl]-2-oxazolyl]-7-oxabicyclo[2.2.1]hept-2-yl]methyl]benzenepropanoic acid]",inhibition of thrombosis on a clopidogrel background,"[4]; 30 nM to 1 μM spiked into whole blood of normal volunteers treated with clopidogrel 75 mg/day for 2 weeks, FIG. 4",inhibited thrombosis to the same extent as aspirin
same,interaction with antithrombotic activity of clopidogrel,[4]; FIG. 4,synergized with the antithrombotic activity of clopidogrel
same,antithrombotic activity versus aspirin,"[4]; AERD patients, aspirin after desensitization, FIG. 7B",significant antithrombotic activity versus aspirin
same,antithrombotic activity versus aspirin,"[4]; healthy volunteers, FIG. 7A",significant antithrombotic activity versus aspirin
same,"anti-aggregatory activity, collagen-induced platelet aggregation","platelets [5]; AERD patients, FIG. 8B",significant anti-aggregatory activity
same,concentrations at which aspirin effects on collagen-induced platelet aggregation and thrombosis were reproduced,"platelets [5]; AERD patients, FIG. 8B",> 100 nM
same,"anti-aggregatory activity, collagen-induced platelet aggregation","platelets [5]; healthy volunteers, FIG. 8A",significant anti-aggregatory activity
same,concentrations at which aspirin effects on collagen-induced platelet aggregation and thrombosis were reproduced,"platelets [5]; normal volunteers, FIG. 8A",> 100 nM
same,antithrombotic activity in P2Y12 heterozygous animals,[6],profound inhibition
same,antithrombotic activity in wild type animals,[6],at least similar antithrombotic activity
same,"anti-aggregatory activity, arachidonic acid-induced platelet aggregation",platelets [7],anti-aggregatory activity
same,levels of leukotrienes,leukotrienes,maintained constant
COc1ccc2c(c1)c(CC(=O)O)c(C)n2C(=O)c1ccc(Cl)cc1 [indomethacin],effect on bleeding time prolongation activity of BM 13.177 promoted by dazoxiben,[8],blocked the ability of dazoxiben
O=C(O)CCCCO/N=C(/c1cccnc1)c1cccc(C(F)(F)F)c1 [ridogrel],enhancing fibrinolytic efficacy of streptokinase,"[2]; RAPT study, 907 patients with acute myocardial infarction",not found to be superior to aspirin
same,preventing new ischaemic events,[2]; RAPT study,may have been more efficacious than aspirin
"CC(C)(C)N/C(=N\C#N)Nc1cccc(/C(=C\CCCC(=O)O)c2cccnc2)c1 [terbogrel, 5-hexenoic acid, 6-[3-[[(cyanoamino)[(1,1-dimethylethyl)amino]methylene]amino]phenyl]-6-(3-pyridinyl)-, (E-)]",antiaggregatory activities in aspirin-treated individuals,platelets [3]; Zimmermann et al.,additional antiaggregatory activities
ortho-acetylsalicylic acid [aspirin],interaction with antithrombotic activity of clopidogrel,[4]; FIG. 4,synergized with the antithrombotic activity of clopidogrel
same,effect of prior aspirin treatment on dethrombotic activity of a TP antagonist,preformed thrombi; FIG. 5C,prevented by prior aspirin treatment
same,"effect on prolongation in occlusion time by U63,557a with L636,499",coronary arteries,inhibited the prolongation in occlusion time
same,antithrombotic activity in P2Y12 heterozygous animals,[6],profound inhibition
same,antithrombotic activity in wild type animals,[6],at least similar antithrombotic activity
same,individuals developing gastroduodenal ulcers,[2]; 75-325 mg doses,1 out of 10
same,reduction in vascular events,"[2]; Antithrombotic Trialist's Collaboration, overall",22%
same,reduction in cardiovascular events,[2]; [9],15%
same,reduction in myocardial infarction,[2]; [9],36%
same,incidence of cardiovascular death,"[2]; Primary Prevention Project, 100 mg/d, at-risk patients, reduced from 1.4%",0.8%
same,reduction in adverse events,"[2]; hundreds of randomized clinical trials, at-risk patients",20-25%
same,asthmatic adults developing severe bronchoconstriction,[2]; oral challenge with aspirin or NSAID,5-20%
same,levels of leukotrienes,leukotrienes,increased
